Literature values as cited in patent publication US8147876B2, “Medical agent for preventing or treating diseases resulting from one of inflammation and remodeling, and method for preventing or treating the diseases” (National University Corporation Tokyo Medical and Dental …, priority 2007, dated 2012).

Test system: VCAM-1
Settings: human tracheal smooth muscle cells, J Cell Physiol. 2006

For `COc1cc(/C=C/C(=O)CC(=O)/C=C/c2ccc(O)c(OC)c2)ccc1O` [Curcumin], the “TNFα-induced VCAM-1 expression” value is listed as “inhibit”.
